# Experimental data reported in PubChem BioAssay (NCI).
# Values joined by “and” are separate entries in the source; they are usually repeats but may differ in a detail not shown here. Identical values can stand only once.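 Compound exposure: 48 hours, 5 concentrations, 96-well plates. GI50 marks 50% less growth. TGI marks complete inhibition of growth.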
# Columns and labels:
# Test in all cases: NCI-60 cell line screen, 48 h
# SW-620 colon = test system: SW-620 colon
# M14 melanoma = test system: M14 melanoma
# 786-0 renal = test system: 786-0 renal
# SK-MEL-28 melanoma = test system: SK-MEL-28 melanoma
# A549 NSCLC = test system: A549 NSCLC
# HOP-92 NSCLC = test system: HOP-92 NSCLC
# CCRF-CEM leukemia = test system: CCRF-CEM leukemia
# HCT-15 colon = test system: HCT-15 colon
# EKVX NSCLC = test system: EKVX NSCLC
# SNB-19 CNS = test system: SNB-19 CNS
# T-47D breast = test system: T-47D breast
# NCI-H522 lung = test system: NCI-H522 lung
# COLO 205 colon = test system: COLO 205 colon
# DU-145 prostate = test system: DU-145 prostate
# OVCAR-3 ovarian = test system: OVCAR-3 ovarian
# OVCAR-4 ovarian = test system: OVCAR-4 ovarian
# MDA-MB-435 = test system: MDA-MB-435
# KM12 colon = test system: KM12 colon
# MOLT-4 leukemia = test system: MOLT-4 leukemia
# OVCAR-8 ovarian = test system: OVCAR-8 ovarian
# HS 578T breast = test system: HS 578T breast
# UO-31 renal = test system: UO-31 renal
# UACC-257 melanoma = test system: UACC-257 melanoma
# TK-10 renal = test system: TK-10 renal
# NCI-H460 lung = test system: NCI-H460 lung
# U251 CNS = test system: U251 CNS
# RPMI-8226 leukemia = test system: RPMI-8226 leukemia
# CAKI-1 renal = test system: CAKI-1 renal
# SF-539 CNS = test system: SF-539 CNS
# SF-295 CNS = test system: SF-295 CNS
# NCI/ADR-RES ovarian = test system: NCI/ADR-RES ovarian
# PC-3 prostate = test system: PC-3 prostate
# IGROV1 ovarian = test system: IGROV1 ovarian
# NCI-H226 lung = test system: NCI-H226 lung
# HCC-2998 colon = test system: HCC-2998 colon
# MDA-MB-231 breast = test system: MDA-MB-231 breast
# UACC-62 melanoma = test system: UACC-62 melanoma
# K-562 leukemia = test system: K-562 leukemia
# SF-268 CNS = test system: SF-268 CNS
# SNB-75 CNS = test system: SNB-75 CNS
# SR leukemia = test system: SR leukemia
# BT-549 breast = test system: BT-549 breast
# SN12C renal = test system: SN12C renal
# SK-MEL-2 melanoma = test system: SK-MEL-2 melanoma
# HL-60(TB) leukemia = test system: HL-60(TB) leukemia
# SK-MEL-5 melanoma = test system: SK-MEL-5 melanoma
# NCI-H23 lung = test system: NCI-H23 lung
# ACHN renal = test system: ACHN renal
# LOX IMVI melanoma = test system: LOX IMVI melanoma
# HOP-62 NSCLC = test system: HOP-62 NSCLC
# SK-OV-3 ovarian = test system: SK-OV-3 ovarian
# MALME-3M melanoma = test system: MALME-3M melanoma
# OVCAR-5 ovarian = test system: OVCAR-5 ovarian
# A498 renal = test system: A498 renal
# MCF7 breast = test system: MCF7 breast
# HCT-116 colon = test system: HCT-116 colon
smiles,measurement,setting,value
Nc1nc(N)c2c(ccc3c2ccn3Cc2cccc([N+](=O)[O-])c2)n1,GI50,SW-620 colon,5.56 nM
same,TGI,SW-620 colon,1730 nM and 1640 nM
same,GI50,M14 melanoma,8.65 nM
same,TGI,M14 melanoma,1770 nM
same,GI50,786-0 renal,41.1 nM
same,TGI,786-0 renal,1500 nM
same,GI50,SK-MEL-28 melanoma,1040 nM and 1020 nM
same,TGI,SK-MEL-28 melanoma,2360 nM and 2200 nM
same,GI50,A549 NSCLC,4.96 nM
same,TGI,A549 NSCLC,1570 nM
same,TGI,HOP-92 NSCLC,3050 nM and 1050 nM
same,GI50,CCRF-CEM leukemia,22.1 nM and 12.6 nM
same,TGI,CCRF-CEM leukemia,2030 nM and 1070 nM
same,GI50,HCT-15 colon,12.6 nM
same,TGI,HCT-15 colon,1580 nM and 1700 nM
same,GI50,EKVX NSCLC,1320 nM
same,GI50,SNB-19 CNS,89.8 nM
same,TGI,SNB-19 CNS,2420 nM
same,GI50,T-47D breast,739 nM
same,TGI,T-47D breast,3050 nM
same,GI50,NCI-H522 lung,60.7 nM
same,TGI,NCI-H522 lung,1820 nM
same,GI50,COLO 205 colon,1100 nM and 150 nM
same,TGI,COLO 205 colon,4080 nM and 1790 nM
same,GI50,DU-145 prostate,151 nM and 86 nM
same,TGI,DU-145 prostate,2080 nM and 2000 nM
same,GI50,OVCAR-3 ovarian,1010 nM and 794 nM
same,TGI,OVCAR-3 ovarian,2240 nM and 2220 nM
same,GI50,OVCAR-4 ovarian,1150 nM
same,TGI,OVCAR-4 ovarian,2590 nM
same,GI50,MDA-MB-435,21.7 nM
same,TGI,MDA-MB-435,2400 nM and 2590 nM
same,GI50,KM12 colon,93.7 nM and 129 nM
same,TGI,KM12 colon,2210 nM and 1950 nM
same,GI50,MOLT-4 leukemia,70.4 nM and 62.1 nM
same,TGI,MOLT-4 leukemia,2490 nM
same,GI50,OVCAR-8 ovarian,9.01 nM
same,TGI,OVCAR-8 ovarian,1700 nM
same,GI50,HS 578T breast,1610 nM
same,TGI,HS 578T breast,3380 nM
same,GI50,UO-31 renal,43 nM
same,TGI,UO-31 renal,806 nM
same,GI50,UACC-257 melanoma,1070 nM
same,TGI,UACC-257 melanoma,2470 nM
same,GI50,TK-10 renal,1140 nM
same,TGI,TK-10 renal,2670 nM
same,GI50,NCI-H460 lung,5.01 nM
same,TGI,NCI-H460 lung,1890 nM and 1350 nM
same,GI50,U251 CNS,18 nM
same,TGI,U251 CNS,1720 nM
same,GI50,RPMI-8226 leukemia,58.5 nM and 18.5 nM
same,GI50,CAKI-1 renal,56.2 nM
same,TGI,CAKI-1 renal,1900 nM
same,GI50,SF-539 CNS,45.4 nM
same,TGI,SF-539 CNS,1640 nM
same,TGI,SF-295 CNS,3490 nM and 4550 nM
same,GI50,NCI/ADR-RES ovarian,77.5 nM and 83.5 nM
same,TGI,NCI/ADR-RES ovarian,18600 nM
same,GI50,PC-3 prostate,163 nM and 20.1 nM
same,TGI,PC-3 prostate,2740 nM and 1740 nM
same,GI50,IGROV1 ovarian,2.95 nM
same,TGI,IGROV1 ovarian,25.5 nM
same,GI50,NCI-H226 lung,272 nM
same,TGI,NCI-H226 lung,2420 nM
same,GI50,HCC-2998 colon,49 nM
same,TGI,HCC-2998 colon,1560 nM
same,GI50,MDA-MB-231 breast,1270 nM
same,TGI,MDA-MB-231 breast,2640 nM
same,GI50,UACC-62 melanoma,30.6 nM
same,TGI,UACC-62 melanoma,1390 nM
same,TGI,K-562 leukemia,21600 nM
same,GI50,SF-268 CNS,53.5 nM
same,TGI,SF-268 CNS,1990 nM
same,GI50,SNB-75 CNS,1110 nM
same,TGI,SNB-75 CNS,2360 nM
same,GI50,SR leukemia,7.79 nM
same,GI50,BT-549 breast,1250 nM
same,TGI,BT-549 breast,3050 nM
same,GI50,SN12C renal,61.5 nM
same,TGI,SN12C renal,1650 nM
same,GI50,SK-MEL-2 melanoma,1260 nM
same,TGI,SK-MEL-2 melanoma,2620 nM
same,GI50,HL-60(TB) leukemia,9.18 nM and 47.6 nM
same,TGI,HL-60(TB) leukemia,2500 nM
same,GI50,SK-MEL-5 melanoma,74.4 nM
same,TGI,SK-MEL-5 melanoma,2150 nM and 1450 nM
same,GI50,NCI-H23 lung,56.6 nM
same,TGI,NCI-H23 lung,2460 nM
same,GI50,ACHN renal,37.2 nM
same,TGI,ACHN renal,1740 nM
same,GI50,LOX IMVI melanoma,8.31 nM
same,TGI,LOX IMVI melanoma,1470 nM
same,GI50,HOP-62 NSCLC,65.4 nM
same,TGI,HOP-62 NSCLC,1870 nM
same,GI50,SK-OV-3 ovarian,88.8 nM and 540 nM
same,TGI,SK-OV-3 ovarian,2010 nM and 2110 nM
same,GI50,MALME-3M melanoma,1210 nM
same,TGI,MALME-3M melanoma,2810 nM
same,GI50,OVCAR-5 ovarian,50.4 nM
same,TGI,OVCAR-5 ovarian,2360 nM
same,GI50,A498 renal,166 nM and 224 nM
same,TGI,A498 renal,1970 nM and 1940 nM
same,GI50,MCF7 breast,56.5 nM and 29.3 nM
same,TGI,MCF7 breast,2720 nM and 1450 nM
same,GI50,HCT-116 colon,5.91 nM
same,TGI,HCT-116 colon,1840 nM
